Patent US20230143775A1, “METHODS OF TREATING CORONAVIRUS INFECTIONS” (EAGLE PHARMACEUTICALS, INC., priority 2020, published 2023)
In brackets after ≈: the same amount, converted by molar mass.

How the values were obtained:
uninfected Vero E6 cells = conditions: lower dilutions (<50 μM dantrolene), without virus
SARS-CoV-2 = experiment: Virus neutralization (VN) assay, scoring SARS-CoV-2 cytopathic effects (CPE) in Vero E6 cells; type: cell-based; conditions: for Day 2 Read (CPE) / Day 4 Read (CPE) / Day 6 Read (CPE): triplicate wells
[1] = 20 μM dantrolene (as […]), […], Vero E6 cells
[2] = 30 μM dantrolene (as […]), […], Vero E6 cells
[3] = 40 μM dantrolene (as […]), […], Vero E6 cells

O=C1CN(/N=C/c2ccc(-c3ccc([N+](=O)[O-])cc3)o2)C(O)=N1 [dantrolene]
cell viability of uninfected Vero E6 cells (uninfected Vero E6 cells): good cell viability | Day 2 Read (CPE) (SARS-CoV-2; [1]): 3/3 wells had No CPE | Day 4 Read (CPE) (SARS-CoV-2; [1]): 3/3 wells had No CPE | Day 6 Read (CPE) (SARS-CoV-2; [1]): 3/3 wells had No CPE | Day 2 Read (CPE) (SARS-CoV-2; [2]): 3/3 wells had No CPE | Day 4 Read (CPE) (SARS-CoV-2; [2]): 3/3 wells had No CPE | Day 6 Read (CPE) (SARS-CoV-2; [2]): 3/3 wells had No CPE | Day 2 Read (CPE) (SARS-CoV-2; [3]): 3/3 wells had No CPE | Day 4 Read (CPE) (SARS-CoV-2; [3]): 3/3 wells had No CPE | Day 6 Read (CPE) (SARS-CoV-2; [3]): 3/3 wells had No CPE | Day 6 Read (CPE) (SARS-CoV-2; 100 μM dantrolene (as […]), […], Vero E6 cells): 3/3 wells had >90% | CPE (SARS-CoV-2; 20-40 μM of dantrolene, […]): no CPE was observed | cytopathic effects (indicating virus growth) (SARS-CoV-2; 20 and 40 μM dantrolene, all timepoints): No cytopathic effects | MIC (SARS-CoV-2; Severe acute respiratory syndrome coronavirus 2, no CPE across all time points (Days 2, 4, 6), Vero E6 cells, read-out: minimum inhibitory concentration): 20 µM (≈ 6.29 µg/mL) | anti-viral activity (SARS-CoV-2; lower concentrations of 10 and 5 μM): showed anti-viral activity
